Where “and” joins values, the source holds several entries; their conditions need not be identical. Equal entries are not always repeated.
Legend:
[1] = Shelf life and storage of the aqueous solution, citral and limonene by GC; format: physicochemical
Procedure: Finding an appropriate storage material. Verifying the presence of volatile attractive molecules in fresh solutions (freshly produced, 1 day old) and stored solutions (8-12 months). Determining the quantity of those attractive molecules in said solutions, and thus allowing to follow said solutions' chemical profiles within time.
An aqueous solution of 3.5 ng/μL essential oil from Melissa officinalis, 3.6 ng/μL essential oil from Cymbopogon flexuosus citraliferum and 5 ng/μL polysorbate 20 was produced, bottled and stored.
Bottle material test: Two types of 100-ml bottles were tested. A plastic and an aluminum bottle were produced (20 bottles for each material). The bottles were stored 1 month, and then tested for the presence of citral.
Long term shelf life test: 38 bottled solutions (stored 8-12 months) and 11 bottled fresh solutions (stored 1 day) were tested to compare the presence and quantity of citral and limonene.
Quantitative measurements for citral and limonene were done by gas chromatography (GC). These are well known in the art. The essential oils were extracted from 25 ml of said bottled solution using 2 ml of n-hexane (LC-MS or HPLC grade). A sample of (1 μl) of the n-hexane extract was injected in the GC-MS equipped with a mass detector and using an OPTIMA-5MS capillary column (30 m, 0.25 mm I.D., […]). Programmed temperature elution was employed with an initial temperature of 40° C., then ramped to 280° C. at 8° C./min and held at 280° C. for 5 min. Helium was used as the carrier gas. Electron impact ionization was performed using an electron energy of 70 eV and a mass range of 40-800 m/z.

[2] = system: Dermatophagoides pteronyssinus; assay: Binary choice test of mites between tested felt and control felt in a Petri dish; format: in vivo; design: key to stat Test: Stat diff: statistically different; NS: not significant; conditions: for Mean (binary choice of dust mites, tested felt) / stat Test: control felt + 1 μL H2O
Procedure: Aim of the experiments: All experiments are tests of binary choice aiming to determine the preference of mites and the place where they prefer to stay (at least for 30 min).
Rearing: The species studied was Dermatophagoides pteronyssinus, a dust mite common in mattresses in Eurasia. Mites are reared in Petri dishes and fed with human skin flakes (skin and whiskers obtained by cleaning electric shavers). All mites were reared together under defined conditions (20° C. and 75% relative humidity). The experiments took place in a room kept at 20° C. and 40% relative humidity.
Materials and methods: A group of mites (20<n<40) was placed in the centre of a Petri dish (∅=5.5 cm) around which two semi-circles of felt were placed (see FIG. 1). The pieces of felts were 70 mg/cm^2, their thickness was 2 mm. One felt is the control (control felt); the other felt is the felt with the tested item, for instance the felt that is impregnated with a chemical compound that is tested.
Mites move spontaneously towards one of the two felts.
Observations and counting of mites was made under binocular microscope (magnification 10*). The set-up is illuminated with a cold lamp (KL 1500 LCD, Schott®), the lighting is symmetric and the light intensity was 50 Klux. The experimental conditions were controlled in the room (T° C.: 19-22° C. and RH 40%).
Aim of the experiments: In the experiments, the tested felt was impregnated with chemicals that may be chemical acarid attractants.
Different compounds were tested: Citral, limonene, α-pinene, eucalyptol, lavendulol, polysorbate 20. Dust mites were attracted to the dilute citral (10^−6) but the citral 10^−3 is repellent. The limonene (dil. 10^−5) and the α-pinene (dil. 10^−6) were attractive for mites.

[3] = system: Dermatophagoides pteronyssinus; assay: Trap test on infested mini-mattresses with sprayed felt, mites counted via Berlese funnel; format: in vivo; conditions: felt 100% polyester; 4 ml/200 cm^2; drying + exposure 0 h + 2 h; dilution 0.00001
Procedure: Rearing: The species studied was Dermatophagoides pteronyssinus, a dust mite common in mattresses in Eurasia. Mites are reared in Petri dishes and fed with human skin flakes (skin and whiskers obtained by cleaning electric […]). All mites were reared together under defined conditions (20° C. and 75% relative humidity). The experiments took place in a room kept at 20° C. and 40% relative humidity. Aim of the experiments: The aim was to test the trap in condition similar to the conditions that will be met by the user of the trap. Materials and methods: The mattresses were built at a smaller scale (15× reduction) than usual mattresses. These mini-mattresses are made in polyurethane and covered by a cover in cotton. […] The fabric was a felt of 20 mg/cm^2 and is a rectangle of 10 cm×20 cm. It was placed on the mini-mattress. Then the attractive solution was sprayed on the fabric with a spray bottle. The fabric was left in place on the mattress. During this time, the mites moved in the felt. It is very difficult to count directly the mites hidden in the mattress and in the fabric. Therefore, we used a Berlese funnel which is a device that is usually used to separate insects from litter. Here, we used it to separate the mites form their mattress or from the fabric. […] The jar was emptied into a Petri dish and we counted mites under binocular. […]

[4] = system: acarids; assay: Acarid migration tests of attraction enhancers alone and with limonene (description); format: in vivo; conditions: for acarid attracting effect when used alone: low doses
[5] = blue felt + 1 μL, dil 10^−6, control white felt + 1 μL H2O
[6] = felt + 1 μL of Citral-0 (dilution not given)
[7] = Aluminium bottle, stored 1 month

Compound: CC(C)=CCCC(C)=CC=O [Citral, 3,7-dimethyl-2,6-octadienal]
- concentration in stored solutions (mean ± St. Dev.) / detection ([1]; 38 solutions, 8-12 months after production): not detected
- presence in bottled solution (bottle material test) ([1]; plastic and aluminium bottles, stored 1 month): present in each sample analysed
- Mean (compound and color) [2, 5]: 0.84
- Test stat (compound and color) [2, 5]: diff stat
- migration of the mites toward the blue felt ([2]; blue felt in combination with citral): 84%
- effect on dust mites ([2]; dilution 10^−3): repellent
- effect on dust mites ([2]; dilution 10^−6): attracted
- Mean (binary choice of dust mites, tested felt) [2, 6]: 0.03
- stat Test [2, 6]: Stat diff
- Mean (binary choice of dust mites, tested felt) ([2]; felt + 1 μL, dil 10^−3): 0.23
- stat Test ([2]; felt + 1 μL, dil 10^−3): Stat diff
- Mean (binary choice of dust mites, tested felt) ([2]; felt + 1 μL, dilution 10^−6): 0.72
- stat Test ([2]; felt + 1 μL, dilution 10^−6): Stat diff
- trapped living mites [3]: 17%

Compound: CC(C)=CCCC(C)CC=O (centres unmarked) [Citronellal, 3,7-dimethyloct-6-en-1-al]
- acarid attracting effect when used alone [4]: mild acarid attractant
- migrated population ([4]; tested with limonene for long contact times): ~1

Compound: CC12CCC(CC1)C(C)(C)O2 [Eucalyptol, 1,3,3-Trimethyl-2-oxabicyclo [2.2.2.]octane]
- effect on dust mites ([2]; dilution not stated): no statistically significant effect
- Mean (binary choice of dust mites, tested felt) ([2]; felt + 1 μL, dilution 10^−6): 0.48 and 0.51
- stat Test ([2]; felt + 1 μL, dilution 10^−6): NS

Compound: CC(C)=CCC/C(C)=C/C=O [Geranial]
- content in the bottled aqueous solution (bottle material test) [1, 7]: 12.56% ± 1.79
- content in the bottled aqueous solution (bottle material test) ([1]; Plastic bottle, stored 1 month): 13.03% ± 1.25

Compound: C=C(C)[C@H](CO)CC=C(C)C [Lavendulol]
- effect on dust mites ([2]; dilution not stated): no statistically significant effect
- Mean (binary choice of dust mites, tested felt) ([2]; felt + 1 μL, dilution 10^−6): 0.46 and 0.51
- stat Test ([2]; felt + 1 μL, dilution 10^−6): NS

Compound: C=C(C)C1CC=C(C)CC1 (centres unmarked) [Limonene, 1-methyl-4-(1-methylethenyl)-cyclohexene]
- effect on dust mites ([2]; dil. 10^−5): attractive
- Mean (binary choice of dust mites, tested felt) ([2]; felt + 1 μL, dil. 10^−5): 0.61
- stat Test ([2]; felt + 1 μL, dil. 10^−5): Stat diff
- Mean (binary choice of dust mites, tested felt) ([2]; felt + 1 μL, dilution 10^−6): 0.48
- stat Test ([2]; felt + 1 μL, dilution 10^−6): NS

Compound: C=CC(C)(O)CCC=C(C)C (centres unmarked) [Linalool, 3,7-dimethyl-1,6-octadien-3-ol]
- acarid attracting effect when used alone [4]: did not appear to have a significant attracting effect
- effect in combination with limonene ([4]; combined with limonene and other attractants): significant increase in the migrated population

Compound: CC(C)=CCC/C(C)=C\C=O [Neral]
- content in the bottled aqueous solution (bottle material test) [1, 7]: 12.68% ± 0.18
- content in the bottled aqueous solution (bottle material test) ([1]; Plastic bottle, stored 1 month): 12.63% ± 0.59

Compound: CC1=CC[C@H]2C[C@@H]1C2(C)C [α-pinene, (15,55)-2,6,6-trimethylbicyclo[3.1.1]hept-2-ene]
- effect on dust mites ([2]; dilution 10^−6): attractive
- Mean (binary choice of dust mites, tested felt) ([2]; felt + 1 μL, dil. 10^−5): 0.45
- stat Test ([2]; felt + 1 μL, dil. 10^−5): NS
- Mean (binary choice of dust mites, tested felt) ([2]; felt + 1 μL, dilution 10^−6): 0.58
- stat Test ([2]; felt + 1 μL, dilution 10^−6): Stat diff

Compound: polyoxyethylene (20) sorbitan monolaurate [Polysorbate 20]
- effect on dust mites ([2]; dilution not stated): no statistically significant effect
- Mean (binary choice of dust mites, tested felt) ([2]; felt + 1 μL, dilution 10^−6): 0.50 and 0.53
- stat Test ([2]; felt + 1 μL, dilution 10^−6): NS
